Measurements taken from patent EP0993306B1, “PERFLUOROALKYLATED OLIGOMER COMPOUNDS, PROCESS FOR PREPARING THE SAME AND THEIR USE IN NMR DIAGNOSIS” (SCHERING AKTIENGESELLSCHAFT, priority 1997, dated 1999).

Key:
[1] = 39 °C, 0,47 T; cited from earlier work
[2] = T1 relaxivity in human plasma (Minispec pc 20); assay type: physicochemical; details: 0.47 T, 20 MHz, 37 °C, Humanplasma; normalised to one metal atom
[3] = rat, in vivo, iv, 100 umol/kg
Description: Hierfür wurde nach einmaliger intravenöser Applikation (via einer Caudalvene) der Substanzen (Dosis: ≈ 100 µmol Metall pro kg Körpergewicht) die Substanzkonzentration im Blut (basierend auf dem Gd- bzw. Dy-Gehalt) über einen Zeitraum bis zu 120 Minuten p. i. mittels ICP-AES bestimmt. Die pharmakokinetischen Parameter: Verteilungsvolumen (Vss), Gesamtclearance (CLtot) und Eliminationshalbwertszeit (tb) wurden mit einem speziellen Computerprogramm (TOPFIT 2.0; Thomae, Schering, Gödecke) berechnet, wobei ein Zwei-Kompartment-Distributionsmodell zu Grunde gelegt wurde.
Die Gd- und Dy-Gehalte im Blut wurden mittels ICP-AES bestimmt.
Hierfür wurde nach einmaliger intravenöser Applikation (via einer Caudalvene) der Substanzen (Dosis: ≈ 100 µmol Metall pro kg Körpergewicht) die Substanzkonzentration im Blut (basierend auf dem Metallgehalt) über einen Zeitraum bis zu 120 Minuten p. i. mittels ICP-AES bestimmt. Die pharmakokinetischen Parameter: Verteilungsvolumen (Vss), Gesamtclearance (CLtot) und Eliminationshalbwertszeit (tb) wurden mit einem speziellen Computerprogramm (TOPFIT 2.0; Thomae, Schering, Gödecke) berechnet, wobei ein Zwei-Kompartment-Distributionsmodell zu Grunde gelegt wurde.

[4] = Diffusibility: in vivo comparison with an intravasal and an extracellular contrast agent, ligated renal vessels; details: i.v. 20 µmol/kg each, ligated renal vessels, relative to Verbindung 2 set as 100 %
Experimental: Als Versuchstiere dienten drei 250 g schwere, männliche (Schering-SPF-) Ratten. Den Tieren wurden die Nierengefäße abgebunden, um eine renale Eliminierung zu verhindern und bei angenommener vernachlässigbarer faekaler Eliminierung ein Maß für Diffusibilität der erfindungsgemäßen Formulierung aus dem Blut in das umgebende Gewebe zu erhalten. Je Tier wurden 0.5 ml (jeweils 10 mmol/L) der folgenden Kontrastmittel-Lösung intravenös appliziert: Gemisch aus je 1 Teil der Verbindung des Beispiels 1g, im folgenden Verbindung 1 genannt, des intravasalen Kontrastmittels Eu-DTPA-Albumin, im folgenden Verbindung 2 genannt, und des extrazellulären Kontrastmittels Dy-DTPA, im folgenden Verbindung 3 genannt. Über einen Katheter in der Arteria carotis communis wurden Blutproben zu folgenden Zeitpunkten entnommen: 15, 30, 45, 60, 90 sec, 3, 5, 10, 15 min p.i. In den gewonnenen Blutproben wurden jeweils parallel die Konzentrationen an Gadolinium (Gd), Europium (Eu) und Dysprosium (Dy) mittels Atomemissionsspektrometrie (ICP-AES) gemessen. Der im Blutraum verbliebene Anteil des intravasalen Kontrastmittels Verbindung 2 (Eu) wurde als 100 % gesetzt. Der im Blutraum verbliebene Anteil der erfindungsgemäßen Formulierung Verbindung 1 (Gd) und der Verbindung 3 (Dy, extrazelluläre Vergleichssubstanz) konnte durch die unterschiedliche Markierung im gleichen Tier verglichen werden und wurde prozentual ins Verhältnis zur Konzentration der Verbindung 2 gesetzt. Damit liefern diese Daten Angaben über den Verbleib der Verbindungen im Intravasalraum.

Molecule: Gadolinium-III-Komplex des 1,4,7,10-Tetracarboxymethyl-1,4,7,10-tetraazacyclododecans [Dotarem®]
- T^1-Relaxivity [1]: 3,5 - 4,9 mM^-1 · sec^-1

Molecule: CC(O)CN1CCN(CC(=O)[O-])CCN(CC(=O)[O-])CCN(CC(=O)[O-])CC1.[Gd+3] (stereo not drawn) [Pro Hance®]
- T^1-Relaxivity [1]: 3,5 - 4,9 mM^-1 · sec^-1

Molecule: C[NH2+]C[C@@H](O)[C@@H](O)[C@H](O)[C@@H](O)CO.C[NH2+]C[C@@H](O)[C@@H](O)[C@H](O)[C@@H](O)CO.O=C([O-])CN(CCN(CC(=O)[O-])CC(=O)[O-])CCN(CC(=O)[O-])CC(=O)[O-].[Gd+3] [Magnevist ®, Di-N-methylglucaminsalz des Gd-DTPA-Komplexes, reference compound]
- T^1-Relaxivity [1]: 3,5 - 4,9 mM^-1 · sec^-1
- R^1 (T^1-Relaxivity) [2]: 4,8 L/mmol * sec

Molecule: Dy-DTPA [reference compound]
- Vss [3]: 0.17 L/kg
- Prozentsatz der im Blutraum verbliebenen Dosis ([4]; 30 sec p.i.): 48%
- Prozentsatz der im Blutraum verbliebenen Dosis ([4]; 3 min p.i.): 25%
- Prozentsatz der im Blutraum verbliebenen Dosis ([4]; 10 min p.i.): 21%

Molecule: CNC(=O)CN(CCN(CCN(CC(=O)[O-])CC(=O)NC)CC(=O)[O-])CC(=O)[O-].[Gd+3] [Omniscan®]
- T^1-Relaxivity [1]: 3,5 - 4,9 mM^-1 · sec^-1

Molecule: 1,4,7-Tris{N-hexanoyl-2,6-bis〈amino-N-acetyl-2-[aminopropanoyl-(2-yl)]-[1,4,7-tris(Ncarboxylatomethyl)-1,4,7,10-tetraazacyclododecan-10-yl, Gd-Komplex]〉}-10-[N-acetyl-(2-amino-N-ethyl-N-perfluoroctylsulfonyl)]-1,4,7,10-tetraazacyclododecan [Beispiel 27]
- R^1 (T^1-Relaxivity) [2]: 16,1 L/mmol * sec

Molecule: 1,4,7-Tris(N-3,3,6-tris(carboxylatomethyl)-6-[N-3-aza-2,5-dioxo-pentan-1,5-diyl]-3,6,9-triazaundecan-1,11-disäure, Gd-Komplex, Mononatriumsalz}-10-2H,2H,4H,4H,5H,5H-3-oxa-perfluor-tridecanoyl)-1,4,7,10-tetraazacyclododecan [Beispiel 8 b)]
- R^1 (T^1-Relaxivity) [2]: 20,6 L/mmol * sec

Molecule: 1,4,7-Tris{N-3,9-bis(carboxylatomethyl)-6-[N-3-aza-2,5-dioxo-pentan-1,5-diyl]-3,6,9-triazaundecan-1-carboxylato-11-säure, Gd-Komplex, Natriumsalz}-10-[Nacetyl-(2-amino-N-ethyl-N-perfluoroctylsulfonyl)]-1,4,7,10-tetraazacyclododecan [Beispiel 18 d)]
- R^1 (T^1-Relaxivity) [2]: 23,0 L/mmol * sec

Molecule: 1,4,7-Tris{1,4,7-tris-(N-carboxylatomethyl)-10-[N-(4,7-diaza-3,6,9-trioxo)-nonan-2,9-diyl]-1,4,7,10-tetraazacyclododecan, Gd-Komplex-10-(N-22F,22F,22F,21F,21F, 20F,20F,19F, 19F, 18F, 18F, 17F,17F, 16F, 16F, 15F, 15F-heptadecafluor-12-oxadocosanoyl)-1,4,7,10-tetraazacyclododecan [Beispiel 14 e)]
- R^1 (T^1-Relaxivity) [2]: 19,3 L/mmol * sec

Molecule: 1,4,7-Tris{N-[3,9-bis{N-carboxylatomethyl)]-6-[N-{3-aza-2,5-dioxo-pentan)-1,5-diyl]-3,6,9-triazaundecan-1-carboxylato-11-säure, Gd-Komplex, Mononatriumsalz}-10-N-{undecanoyl-〈11-amino-N-[acetyl-(2-amino-N-ethyl-N-perfluoroctylsulfonyl)]) }-1,4,7,10-tetraazacyclododecan [Beispiel 25 f)]
- R^1 (T^1-Relaxivity) [2]: 15,1 L/mmol * sec

Molecule: 1,4,7-Tris{N-hexanoyl-2,6-bis〈*amino-N-acetyl-2-[3,9-bis(N-carboxylato-methyl)-6-yl-3,6,9-triazaundecan-1-carboxylato-11-säure, Gd-Komplex, Mononatriumsalz]〉}-10-[N-acetyl-(2-amino-N-ethyl-N-perfluoroctylsulfonyl)]-1,4,7,10-tetraazacyclododecan [Beispiel 26 d)]
- R^1 (T^1-Relaxivity) [2]: 13,0 L/mmol * sec
